Source: patent publication US5116832A, “Penem derivatives production and use thereof” (Suntory Limited, priority 1986, dated 1992)

Tests used:
[1] = biological target: T1, purified human renal dehydropeptidase (Homo sapiens, UniProt P16444); assay: Stability test against renal dehydropeptidase; format: in vitro ADME; conditions: for half-life at 100 µM: human, purified renal dehydropeptidase, pH 7
T1 sequence (P16444 17-411): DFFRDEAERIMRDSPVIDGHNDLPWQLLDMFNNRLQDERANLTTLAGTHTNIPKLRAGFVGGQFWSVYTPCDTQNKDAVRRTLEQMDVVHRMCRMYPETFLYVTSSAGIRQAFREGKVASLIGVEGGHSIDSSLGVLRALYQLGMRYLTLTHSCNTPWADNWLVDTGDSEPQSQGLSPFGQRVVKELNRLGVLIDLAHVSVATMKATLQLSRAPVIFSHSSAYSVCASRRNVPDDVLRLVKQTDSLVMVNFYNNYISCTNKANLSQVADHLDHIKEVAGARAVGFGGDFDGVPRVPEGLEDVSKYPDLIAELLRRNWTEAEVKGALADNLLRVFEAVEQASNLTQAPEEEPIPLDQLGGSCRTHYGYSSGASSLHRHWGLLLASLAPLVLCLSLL
Procedure: Method: 0.325 μ/ml (final concentration) of purified human renal dehydropeptidase and 100 μM (final concentration) of each test compound were heated to 37° C. in 50 mM of Tris/HCl buffer (pH 7.0) and samples were collected at planned hours. Remaining amounts of the compound in the samples were analyzed quantitatively and the half-life period of each compound was calculated.

[2] = Acute toxicity test; conditions: mouse, in vivo
Description: Among the novel compounds as obtained according to the present invention, the compound (27) was selected to conduct an acute toxicity test. Mice of ICR strain (4-weeks aged), being used as an experimental animal, were given the compound through oral and intravenous routes.

[3] = tested on: E. coli KC-14; assay: Therapeutic effect on the experimental infection in mice (E. coli KC-14); format: in vivo; conditions: Escherichia coli, E. coli KC-14 4.8 × 10^5 colony forming unit intraperitoneally, survival 5 days later, male ICR mice
Procedure: Among the novel compounds as obtained according to the present ivention, the compound (27) was used to carry out a therapy experiment with infected animals. With male mice of ICR strain (5-weeks aged, weighing from 23 to 27 g) being employed as an experimental animal, E. coli KC-14 was inoculate intraperitoneally to the mice, and, 2 hours later, the compound (27) was administered subcutaneously or orally.

[4] = tested on: S. aureus Smith; assay: Therapeutic effect on the experimental infection in mice (S. aureus Smith); format: in vivo; conditions: Staphylococcus aureus, sc, 120 h, S. aureus Smith 3.8 × 10^6 colony forming unit, compound subcut.

Structure (SMILES): C[C@@H](O)[C@H]1C(=O)N2C(C(=O)O)=C(CC3CCOC3)S[C@H]12 (stereo partly shown) [Compound 27]
- stability against renal dehydropeptidase (in words) [1]: more stable than Sch 29482 and Imipenem
- half-life at 100 µM [1]: 3.81 h
- survival in acute toxicity test ([2]; iv): all found to survive
- survival in acute toxicity test ([2]; po): all found to survive
- ED50 ([3]; KC14, 120 h, compound oral 2 hours later): 9.5 mg/kg
- ED50 ([3]; KC14, ip, 120 h, compound subcut. 2 hours later): 3 mg/kg
- ED50 [4]: 1.11 mg/kg

Structure (SMILES): C[C@@H](O)[C@H]1C(=O)N2C(C(=O)O)=C(SCCN=CN)C[C@H]12 [Imipenem]
- Remaining amount after 9 hours ([1]; 100 μM test compound, human renal dehydropeptidase, 37° C., 50 mM Tris/HCl buffer pH 7.0, 9 hours): 14.7 µg/mL
- half-life at 100 µM [1]: 3.02 h

Structure (SMILES): CCSC1=C(C(=O)O)N2C(=O)[C@H]([C@@H](C)O)[C@H]2S1 [Sch 29482]
- half-life at 100 µM [1]: 1.44 h
